Where “and” joins values, the source holds several entries; their conditions need not be identical. Equal values may be shown once.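 Cultured in 96-well plates, cells were exposed to test compound for 48 hours across five concentrations. Here, GI50 denotes the concentration required for 50% inhibition of growth. TGI denotes the concentration required for complete inhibition of growth.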
Columns and labels:
Assay in all cases: DTP human tumour cell line panel, 48 h
[1] = system: UO-31 renal
[2] = system: HOP-92 NSCLC
[3] = system: DMS 114 small cell lung
[4] = system: OVCAR-4 ovarian
[5] = system: TK-10 renal
[6] = system: RPMI-8226 leukemia
[7] = system: SR leukemia
[8] = system: RXF 393 renal
[9] = system: MOLT-4 leukemia
[10] = system: M19-MEL melanoma
[11] = system: SF-539 CNS
[12] = system: SK-MEL-5 melanoma
[13] = system: IGROV1 ovarian
[14] = system: HOP-62 NSCLC
[15] = system: OVCAR-3 ovarian
[16] = system: HCT-116 colon
[17] = system: SF-295 CNS
[18] = system: M14 melanoma
[19] = system: SW-620 colon
[20] = system: HL-60(TB) leukemia
[21] = system: NCI-H460 lung
[22] = system: SK-MEL-2 melanoma
[23] = system: ACHN renal
[24] = system: KM20L2 colon
[25] = system: OVCAR-8 ovarian
[26] = system: SNB-75 CNS
[27] = system: DLD-1 colon
[28] = system: NCI-H226 lung
[29] = system: HT29 colon
[30] = system: A549 NSCLC
[31] = system: LXFL 529 NSCLC
[32] = system: EKVX NSCLC
[33] = system: NCI-H23 lung
[34] = system: SK-MEL-28 melanoma
[35] = system: COLO 205 colon
[36] = system: KM12 colon
[37] = system: UACC-257 melanoma
[38] = system: HCC-2998 colon
[39] = system: K-562 leukemia
[40] = system: SNB-19 CNS
[41] = system: CAKI-1 renal
[42] = system: UACC-62 melanoma
[43] = system: SF-268 CNS
[44] = system: CCRF-CEM leukemia

`CC(=O)OCC1OC(n2c(=S)n(-c3ccc(C)cc3)c(=O)c3ccccc32)C(OC(C)=O)C(OC(C)=O)C1OC(C)=O` (stereo not given) was tested, and the TGI [1] was over 100 µM, the TGI [2] was over 100 µM and the GI50 [3] was 41.9 µM and 90 µM. The TGI [3] was over 100 µM, the GI50 [4] was 17 µM and 45.1 µM and the TGI [4] was 83.9 µM and > 100 µM. The TGI [5] was over 100 µM, the TGI [6] was over 100 µM and the TGI [7] was over 100 µM. The TGI [8] was over 100 µM and the TGI [9] was over 100 µM.

`COC(=O)C1=C(C)N2CCOC2(C)C(C(=O)OC)C1c1ccc[nH]1` (stereo not given) was tested, and the TGI [10] was over 100 µM, the TGI [11] was over 100 µM and the TGI [12] was over 100 µM. For the same compound, the TGI [1] was over 100 µM, the TGI [13] was over 100 µM and the TGI [14] was over 100 µM. It also gave a TGI [15] of over 100 µM, a TGI [16] of over 100 µM and a TGI [17] of over 100 µM. The TGI [18] was over 100 µM, the TGI [19] was over 100 µM and the TGI [20] was over 100 µM. It also gave a TGI [21] of over 100 µM, a TGI [22] of over 100 µM and a TGI [2] of over 100 µM. For the same compound, the TGI [3] was over 100 µM, the TGI [23] was over 100 µM and the TGI [24] was over 100 µM. It also gave a TGI [4] of over 100 µM, a TGI [25] of over 100 µM and a TGI [26] of 82.9 µM. The TGI [5] was over 100 µM, the TGI [27] was over 100 µM and the TGI [28] was over 100 µM. It also gave a TGI [29] of over 100 µM, a TGI [30] of over 100 µM and a TGI [31] of over 100 µM. It also gave a TGI [32] of over 100 µM, a TGI [6] of over 100 µM and a TGI [7] of over 100 µM. It also gave a TGI [33] of over 100 µM, a TGI [34] of over 100 µM and a TGI [8] of over 100 µM. It also gave a TGI [35] of over 100 µM, a TGI [36] of over 100 µM and a TGI [37] of over 100 µM. For the same compound, the TGI [38] was over 100 µM, the TGI [39] was over 100 µM and the TGI [9] was over 100 µM. For the same compound, the TGI [40] was over 100 µM, the TGI [41] was over 100 µM and the TGI [42] was over 100 µM. The TGI [43] was over 100 µM and the TGI [44] was over 100 µM.

From PubChem BioAssay (NCI)
